The source of these data is publication PMC11233931, “Remodeling tumor‐associated macrophage for anti‐cancer effects by rational design of irreversible inhibition of mitogen‐activated protein kinase‐activated protein kinase 2” (MedComm, 2024).

The test system of experiment [1] is TNF-α, IL-6 and IL-1β mRNA in THP-1 cell-line-derived macrophage. The experiment in a line: RT-PCR of cytokine mRNA in LPS-stimulated THP-1 derived macrophages. It counts as cell-based, human. The settings on record: THP-1 derived macrophage; 3 h pre-treatment, LPS 100 ng/mL 3 h. The text has this: MK2 is recognized for inducing the production of pathological cytokines that fuel inflammation, including IL‐6, TNF‐α, and IL‐1β. These cytokines are the classic downstream target gene of MK2 and are identified as significant contributors to the risk of inflammation‐driven cancer,[34], [35], [36] such as colorectal cancer and hepatocellular carcinoma. Therefore, we assessed the transcriptional levels of these typical downstream cytokines in human monocytic THP‐1 cell‐line‐derived macrophage and the mouse RAW264.7 macrophage cell line under the influence of compound 11. […] Taken together, our findings corroborate that compound 11 effectively impedes the transcription and production of these key MK2 downstream pro‐inflammatory cytokines.
FIGURE 4 Targeting cellular MK2 signaling with irreversible inhibition by compound 11. […] (C) The inhibitory effects of compound 11 on TNF‐α and IL‐6 production in LPS‐stimulated RAW264.7 macrophages for 24 h, measured by ELISA. […]
Total RNA was extracted from cultured cells using the EZ‐press RNA Purification Kit (EZBioscience). Complementary DNA was synthesized using the ABScript III RT Master Mix for qPCR with gDNA remover (ABclonal Technology) and was quantified with primers listed in Table S5. The relative mRNA expression levels were quantified through qPCR using the SYBR green gene expression assay (ABclonal Technology).

Another experiment deals with T1, MK3 (Homo sapiens, UniProt Q16644).
T1 construct: purchased Eurofins (Celle Lévescault)
The experiment in a line: Eurofins kinase selectivity profile, MK3. It counts as biochemical. The procedure:
Subsequently, to ascertain whether the high potency of compound 11 was specific for MK2, an additional 380 human recombinant protein kinases were screened.
To assess the impact of various compounds on MK2 kinase activity, we utilized the ADP‐Glo Assay Kit (Promega) following the manufacturer's instructions. Luminescence measurements were taken using a SpectraMax Paradigm reader. The inhibition percentage was calculated using the following formula: ((specific signalDMSO control − specific signal inhibitor)/(specific signalDMSO control)) × 100%. The IC50 values were determined employing dose–response curve fitting via Prism (Graph Pad). Additionally, Eurofins company (Celle Lévescault) conducted the analysis on compound 11’s inhibitory activity against 380 other human recombinant kinases at various concentrations.

The structures appear in SMILES notation. Where only a bound is given, the exact number is not on record here.

As usually defined, the IC50 is the point on the concentration scale where inhibition reaches its midpoint. A higher IC50 goes with a need for much substance. A word on the inhibition: it is the relative decrease from the control value, in per cent.

T1 sequence (Q16644 whole entry): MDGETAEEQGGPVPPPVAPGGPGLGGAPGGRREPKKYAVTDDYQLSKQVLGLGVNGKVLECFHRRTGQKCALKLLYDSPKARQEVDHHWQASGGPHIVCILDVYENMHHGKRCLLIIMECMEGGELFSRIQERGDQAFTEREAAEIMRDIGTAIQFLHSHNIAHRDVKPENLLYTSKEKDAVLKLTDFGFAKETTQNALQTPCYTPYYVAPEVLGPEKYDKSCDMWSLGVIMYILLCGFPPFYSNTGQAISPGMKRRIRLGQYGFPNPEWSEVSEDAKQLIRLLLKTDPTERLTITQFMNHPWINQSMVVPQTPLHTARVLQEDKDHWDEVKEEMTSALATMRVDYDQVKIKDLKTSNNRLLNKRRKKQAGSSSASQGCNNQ

As for `C=CC(=O)Nc1cc(-c2cc(-c3cc4c([nH]3)CCNC4=O)ccn2)ccc1OC(F)(F)F` [compound 11], the “effect on LPS-induced TNF-α, IL-6 and IL-1 mRNA expression” value in experiment [1] is listed as “significantly inhibited”. Besides, the IC50 at MK3 is more than 100 nM. Further, the inhibition at 0.001 µM at MK3 (MAPKAP-K3(h), 1 nM, read-out: Inhibition rate) was -10%. Also, the inhibition at 0.01 µM at MK3 (MAPKAP-K3(h), 10 nM, read-out: Inhibition rate) stood at 1%. Moreover, the inhibition at 0.1 µM on MK3 (MAPKAP-K3(h), 100 nM, read-out: Inhibition rate) is 12%.
